{"source": "patent US10844062B2", "about": "“Pyridine derivative inhibiting RAF kinase and vascular endothelial growth factor receptor, method for preparing same, pharmaceutical composition containing same, and use thereof” (SAMJIN PHARMACEUTICAL CO., LTD., priority 2016, dated 2020)"}
{"system": "LS513 KRAS G12V (colon)", "experiment": "MTT assay", "format": "cell-based", "details": "Homo sapiens, LS-513, 72 h, Table 4; 3 days incubation; read-out: MTT assay IC50 KRAS mutant (Colon) LS513 KRAS G12V", "method": "MTT assay is frequently used for the purpose of primary screening for the sensitivity of anticancer agents and to examine cytotoxicity. When cancer cells are treated with varying concentrations of any anticancer agent for a predetermined time to induce death of the cells and are then treated with MTT, and when the formation of formazan is measured, the concentration of the anticancer agent, at which about 50% of the cells survive, can be determined. This concentration value is called IC50. IC50 values differ between drugs, and thus can be characteristic of the drugs. Using this method, the effects of anticancer agents against cell proliferation can be quantitatively compared. Thus, in order to measure the cytotoxicity of samples, MTT assay was performed using CellTiter 96 Non-radioactive Cell Proliferation Assay Kit (Promega).\nCells in a cell suspension were counted with a hematocytometer, and then 200 μL of the cell suspension was added to each well of a 96 well plate at a desired concentration (cell amount determined depending on a cell line). After cell seeding, the cells were incubated in a CO2 incubator at 37° C. overnight. After one day of cell stabilization, the cells were treated with desired concentrations of the compounds. The cells were incubated in a CO2 incubator at 37° C. for 3 days, and then the sample was removed, and 200 μL of MTT solution was added to each well. After 2 hours of incubation, the MTT dilution was carefully shaken, and 200 μL of DMSO was added to each well, followed by shaking with a plate shaker for 60 minutes.", "units": {"IC50": "nM"}}
{"compound": "Nc1cccc(C(=O)Nc2ccc(F)c(Nc3ncccc3-c3ncnc4[nH]cnc34)c2F)c1", "note": "[Example 54, N-(3-(3-(9H-Purin-6-Yl)Pyridin-2-Ylamino)-2,4-Difluorophenyl)-3-Aminobenzamide]", "IC50": "> 10000"}
{"compound": "COC(=O)Nc1cccc(C(=O)Nc2ccc(F)c(Nc3ncccc3-c3ncnc4[nH]cnc34)c2F)c1", "note": "[Example 55, Methyl 3-(3-(3-(9H-Purin-6-Yl)Pyridin-2-Ylamino)-2,4-Difluorophenylcarbamoyl)Phenylcarbamate]", "IC50": "> 10000"}
{"compound": "O=C(Nc1ccc(F)c(Nc2ncccc2-c2ncnc3[nH]cnc23)c1F)c1cnccn1", "note": "[Example 56, N-(3-(3-(9H-Purin-6-Yl)Pyridin-2-Ylamino)-2,4-Difluorophenyl)Pyrazine-2-Carboxamide]", "IC50": "> 10000"}
{"compound": "O=C(Nc1ccc(F)c(Nc2ncccc2-c2ncnc3[nH]cnc23)c1F)c1ccccc1", "note": "[Example 57, N-(3-(3-(9H-Purin-6-Yl)Pyridin-2-Ylamino)-2,4-Difluorophenyl)Benzamide]", "IC50": "> 10000"}
{"compound": "O=C(Nc1ccc(F)c(Nc2ncccc2-c2ncnc3[nH]cnc23)c1F)c1cc(C(F)(F)F)cc(C(F)(F)F)c1", "note": "[Example 58, N-2,4-Difluoro-3-[3-(9H-Purin-6-Yl)Pyridin-2-Ylamino)-Phenyl-3,5-Bistrifluoromethylbenzamide]", "IC50": 407}
{"compound": "O=C(Nc1cc(Nc2ncccc2-c2ncnc3[nH]cnc23)ccc1F)c1ccc(Cl)c(C(F)(F)F)c1", "note": "[Example 61, 4-Chloro-N-2-Fluoro-5-[3-(9H-Purin-6-Yl)Pyridin-2-Ylamino)Phenyl-3-(Trifluoromethyl)Benzamide]", "IC50": 439}
{"compound": "O=C(Nc1cc(Nc2ncccc2-c2ncnc3[nH]cnc23)ccc1F)c1cc([N+](=O)[O-])cc(C(F)(F)F)c1", "note": "[Example 62, N-2-Fluoro-5-[3-(9H-Purin-6-Yl)Pyridin-2-Ylamino)Phenyl-3-Nitro-5-(Trifluoromethyl)Benzamide]", "IC50": 702}
{"compound": "Cc1cccc(C(=O)Nc2cc(Nc3ncccc3-c3ncnc4[nH]cnc34)ccc2F)n1", "note": "[Example 64, N-2-Fluoro-5-[3-(9H-Purin-6-Yl)Pyridin-2-Ylamino)Phenyl-(6-Methylpyridin-2-Yl)Benzamide]", "IC50": 300}
{"compound": "O=C(Nc1cc(Nc2ncccc2-c2ncnc3[nH]cnc23)ccc1Cl)c1cccc(C(F)(F)F)c1", "note": "[Example 66, N-2-Chloro-5-[3-(9H-Purin-6-Yl)Pyridin-2-Ylamino)Phenyl-3-Trifluoromethylbenzamide]", "IC50": 135}
{"compound": "O=C(Nc1cc(Nc2ncccc2-c2ncnc3[nH]cnc23)ccc1Cl)c1cc(F)cc(C(F)(F)F)c1", "note": "[Example 67, N-2-Chloro-5-[3-(9H-Purin-6-Yl)Pyridin-2-Ylamino)Phenyl-3-Fluoro-5-Trifluoromethylbenzamide]", "IC50": 6590}
{"compound": "Cc1ccc(Nc2ncccc2-c2ncnc3[nH]cnc23)cc1NC(=O)c1cccc(C(F)(F)F)c1", "note": "[Example 68, N-2-Methyl-5-[3-(9H-Purin-6-Yl)Pyridin-2-Ylamino)Phenyl-3-Trifluoromethylbenzamide]", "IC50": 6590}
{"compound": "COc1ccc(Nc2ncccc2-c2ncnc3[nH]cnc23)cc1NC(=O)c1cccc(C(F)(F)F)c1", "note": "[Example 69, N-2-Methoxy-5-[3-(9H-Purin-6-Yl)Pyridin-2-Ylamino)Phenyl-3-Trifluoromethylbenzamide]", "IC50": 7100}
{"compound": "COc1ccc(NC(=O)c2cccc(C(F)(F)F)c2)cc1Nc1ncccc1-c1ncnc2[nH]cnc12", "note": "[Example 70, N-4-Methoxy-5-[3-(9H-Purin-6-Yl)Pyridin-2-Ylamino)Phenyl-3-Trifluoromethylbenzamide]", "IC50": 757}
{"compound": "O=C(Nc1c(F)ccc(Nc2ncccc2-c2ncnc3[nH]cnc23)c1F)c1cccc(C(F)(F)F)c1", "note": "[Example 72, N-2,6-Difluoro-3-[3-(9H-Purin-6-Yl)Pyridin-2-Ylamino)Phenyl-3-Trifluoromethylbenzamide]", "IC50": 1270}
{"compound": "O=C(Nc1cccc(C(F)(F)F)c1)c1cc(Nc2ncccc2-c2ncnc3[nH]cnc23)ccc1F", "note": "[Example 73, 2-Fluoro-5-[3-(9H-Purin-6-Yl)Pyridin-2-Ylamino]-N-(3-Trifluoromethylphenyl)Benzamide]", "IC50": 80}
{"compound": "O=C(Nc1ccc(Cl)c(C(F)(F)F)c1)Nc1cc(Nc2ncccc2-c2ncnc3[nH]cnc23)ccc1F", "note": "[Example 74, 1-(4-Chloro-3-Trifluoromethylphenyl)-3-2-Fluoro-5-[3-(9H-Purin-6-Yl)Pyridin-2-Ylamino]Phenylurea]", "IC50": 68}
{"compound": "O=C(Nc1cccc(C(F)(F)F)c1)Nc1ccc(Nc2ncccc2-c2ncnc3[nH]cnc23)c(F)c1", "note": "[Example 75, 1-3-Fluoro-4-[3-(9H-Purin-6-Yl)Pyridin-2-Ylamino]Phenyl-3-(3-Trifluoromethylphenyl)Urea]", "IC50": "> 10000"}
{"compound": "O=C(Cc1cccc(C(F)(F)F)c1)Nc1cc(Nc2ncccc2-c2ncnc3[nH]cnc23)ccc1F", "note": "[Example 76, N-2-Fluoro-5-[3-(9H-Purin-6-Yl)Pyridin-2-Ylamino]Phenyl-2-(3-Trifluoromethylphenyl)Acetamide]", "IC50": 426}
{"compound": "N#CCc1cccc(NC(=O)c2ccc(F)c(Nc3ncccc3-c3ncnc4[nH]cnc34)c2)c1", "note": "[Example 77, N-(3-Cyanomethylphenyl)-4-Fluoro-3-[3-(9H-Purin-6-Yl)Pyridin-2-Ylamino]Benzamide]", "IC50": 145000}
{"compound": "N#CCc1ccc(C(=O)Nc2ccc(Nc3ncccc3-c3ncnc4[nH]cnc34)c(F)c2)cc1", "note": "[Example 78, N-4-[(3-(9H-Purin-6-Yl)Pyridin-2-Yl)Amino]-3-Fluorophenyl-4-(Cyanomethyl)Benzamide]", "IC50": 137}
{"compound": "O=C(Nc1ccc(Nc2ncccc2-c2ncnc3[nH]cnc23)cc1)c1cccc(C(F)(F)F)c1", "note": "[Example 79, N-4-[3-(9H-Purin-6-Yl)Pyridin-2-Ylamino]Phenyl-3-Trifluoromethylbenzamide]", "IC50": "> 10000"}
{"compound": "COc1cc(Nc2ncccc2-c2ncnc3[nH]cnc23)ccc1NC(=O)c1cccc(C(F)(F)F)c1", "note": "[Example 80, N-2-Methoxy-4-[3-(9H-Purin-6-Yl)Pyridin-2-Ylamino]Phenyl-3-Trifluoromethylbenzamide]", "IC50": "> 10000"}
{"compound": "O=C(Nc1ccc(F)c(Nc2ncccc2-c2ncnc3[nH]cnc23)c1F)N1CCN(c2ccc(F)cc2)C1=O", "note": "[Example 81, N-(3-(3-(9H-purin-6-yl)pyridin-2-ylamino)-2,4-difluorophenyl)-3-(4-fluorophenyl)-2-oxoimidazolidine-1-carboxamide]", "IC50": 388}
{"compound": "CC(C)(C#N)c1cccc(C(=O)Nc2cc(Nc3ncccc3-c3ncnc4[nH]ccc34)c(F)cc2F)c1", "note": "[Example 84, N-(5-(3-(7H-Pyrrolo[2,3-d]Pyrimidin-4-Yl)Pyridin-2-Ylamino)-2,4-Diflurophenyl)-3-(2-Cyanopropan-2-Yl)Benzamide]", "IC50": 118}
{"compound": "CC(C)(C#N)c1cccc(C(=O)Nc2ccc(F)c(Nc3ncccc3-c3ncnc4[nH]ccc34)c2F)c1", "note": "[Example 85, N-(3-(3-(7H-Pyrrolo[2,3-d]Pyrimidin-4-Yl)Pyridin-2-Ylamino)-2,4-Difluorophenyl)-3-(2-Cyanopropan-2-Yl)Benzamide]", "IC50": 676}
{"compound": "CC(C)(C#N)c1cccc(C(=O)Nc2cccc(Nc3ncccc3-c3ncnc4[nH]ccc34)c2F)c1", "note": "[Example 86, N-(3-(3-(7H-Pyrrolo[2,3-d]Pyrimidin-4-Yl)Pyridin-2-Ylamino)-2-Fluorophenyl)-3-(2-Cyanopopan-2-Yl)Benzamide]", "IC50": "> 10000"}
{"compound": "O=C(Nc1cc(Nc2ncccc2-c2ncnc3[nH]ccc23)ccc1F)c1cccc(C(F)(F)F)c1", "note": "[Example 87, N-2-Fluoro-5-[3-(7H-Pyrrolo[2,3-d]Pyrimidin-4-Yl)Pyridin-2-Ylamino]Phenyl-3-Trifluoromethyl Benzamide]", "IC50": 2180}
{"compound": "O=C(Nc1cc(Nc2ncccc2-c2ncnc3[nH]ccc23)ccc1F)c1cc(F)cc(C(F)(F)F)c1", "note": "[Example 88, 3-Fluoro-N-2-Fluoro-5-[3-(7H-Pyrrolo[2,3-d]Pyrimidin-4-Yl)Pyridin-2-Ylamino]Phenyl-5-Trifluoromethyl Benzamide]", "IC50": 609}
{"compound": "CC(C)(C#N)c1cccc(C(=O)Nc2cc(Nc3ncccc3-c3ncnc4[nH]ccc34)ccc2F)c1", "note": "[Example 91, 3-(2-Cyanopropan-2-Yl)-N-2-Fluoro-5-[3-(7H-Pyrrolo[2,3-d]Pyrimidin-4-Yl)Pyridin-2-Ylamino]Phenyl Benzamide]", "IC50": 1120}
{"compound": "CC(C)(C#N)c1cc(F)cc(C(=O)Nc2cc(Nc3ncccc3-c3ncnc4[nH]ccc34)ccc2F)c1", "note": "[Example 92, 3-(2-Cyanopropan-2-Yl)-5-Fluoro-N-2-Fluoro-5-[3-(7H-Pyrrolo[2,3-d]Pyrimidin-4-Yl)Pyridin-2-Ylamino]Phenyl Benzamide]", "IC50": 1510}
{"compound": "O=C(Nc1cc(Nc2ncccc2-c2ncnc3[nH]cnc23)ccc1F)c1ccc(F)c(C(F)(F)F)c1", "note": "[Example 111, N-5-[(3-(9H-Purin-6-Yl)Pyridin-2-Yl)Amino]-2-Fluorophenyl-4-Fluoro-3-(Trifluoromethyl)Benzamide]", "IC50": 300}
{"compound": "CC(C)(C#N)c1cccc(NC(=O)c2cc(Nc3ncccc3-c3ncnc4[nH]cnc34)ccc2F)c1", "note": "[Example 112, 5-[3-(9H-Purin-6-Yl)Amino]-N-[3-(2-Cyanopropan-2-Yl)Phenyl]-2-Fluorobenzamide]", "IC50": "> 10000"}
{"compound": "O=C(Nc1cc(Nc2ncccc2-c2ncnc3[nH]cnc23)ccc1F)c1cccc(F)c1", "note": "[Example 113, N-5-[(3-(9H-Purin-6-Yl)Pyridin-2-Yl)Amino]-2-Fluorophenyl-3-Fluorobenzamide]", "IC50": 1480}
